Experimental data: the supplement of paper PMC10307832

Key:
Assay in all cases: relative viability (nuclei count vs DMSO), 5 days (fraction); higher = more cells survive
Zosuquidar + Foretinib = compound: O[C@@H](COc1cccc2ncccc12)CN1CCN([C@@H]2c3ccccc3[C@@H]3[C@H](c4ccccc42)C3(F)F)CC1 [Zosuquidar] + COc1cc2c(Oc3ccc(NC(=O)C4(C(=O)Nc5ccc(F)cc5)CC4)cc3F)ccnc2cc1OCCCN1CCOCC1 [Foretinib] (partner 0.25 µM)
Method in brief: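 Lung cancer cell lines were seeded in 1536-well plates and dosed by pin tool the next day, with either a single drug or a fixed anchor-drug dose combined with five library-drug doses (not always all listed) spaced in √10 steps. Five days later, one step fixed the cells and stained their nuclei (final 0.05% Triton X-100, 1% formaldehyde, 1 ug/ml Hoechst), and nuclei were counted on 4× images. Relative viability is the nuclei count in treated wells divided by the count in vehicle wells, and each value is the median of duplicate plates.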

Cabozantinib = compound: COc1cc2nccc(Oc3ccc(NC(=O)C4(C(=O)Nc5ccc(F)cc5)CC4)cc3)c2cc1OC [Cabozantinib]
Method in brief: (§1)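 Vehicle-anchored 1536-well plates of lung cancer cell lines, held overnight at 37 °C, were pinned with five library-drug doses (not always all listed) spaced by √10. No medium change followed over the next 5 days, after which the cells were fixed, permeabilised and Hoechst-stained together and imaged at 4×. Nuclei were counted with MetaXpress, and viability is treated-well nuclei over vehicle-well nuclei, taken as a median across plates. Plates passed with control CV below 25% and at least one doubling.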

Zosuquidar = compound: O[C@@H](COc1cccc2ncccc12)CN1CCN([C@@H]2c3ccccc3[C@@H]3[C@H](c4ccccc42)C3(F)F)CC1 [Zosuquidar]
Method in brief: as §1

Kobe2602 = compound: C1=CC(=CC=C1NC(=S)NNC2=C(C=C(C=C2[N+](=O)[O-])C(F)(F)F)[N+](=O)[O-])F [Kobe2602]
Method in brief: as §1

Cell Line	relative viability (Zosuquidar + Foretinib; first compound 0.01 µM)	relative viability (Zosuquidar + Foretinib; first compound 0.03162 µM)	relative viability (Zosuquidar + Foretinib; first compound 0.1 µM)	relative viability (Zosuquidar + Foretinib; first compound 0.3162 µM)	relative viability (Zosuquidar + Foretinib; first compound 1 µM)	relative viability (Cabozantinib; 0.02 µM)	relative viability (Cabozantinib; 0.06325 µM)	relative viability (Cabozantinib; 0.2 µM)	relative viability (Cabozantinib; 0.6325 µM)	relative viability (Cabozantinib; 2 µM)	relative viability (Zosuquidar; 0.01 µM)	relative viability (Zosuquidar; 0.03162 µM)	relative viability (Zosuquidar; 0.1 µM)	relative viability (Zosuquidar; 0.3162 µM)	relative viability (Zosuquidar; 1 µM)	relative viability (Kobe2602; 0.2 µM)	relative viability (Kobe2602; 0.6325 µM)	relative viability (Kobe2602; 2 µM)	relative viability (Kobe2602; 6.325 µM)	relative viability (Kobe2602; 20 µM)
Calu-6	0.842	0.916	1.03	0.942	0.902	1.14	1.08	0.977	0.987	0.954	0.993	0.989	1.11	1.04	1.06	0.992	1.05	1.01	1.01	0.929
NCI-H1734	0.816	0.868	0.775	0.938	0.817	0.92	1.01	1.11	1.02	0.938	1	1	0.928	1.08	0.938	1.05	1.05	0.973	0.987	1.1
NCI-H1651	0.763	0.845	0.703	0.863	0.778	0.95	1.07	0.92	0.981	0.968	0.985	1.02	0.911	1.02	0.983	0.982	1.01	0.981	0.967	1.01
PC-3 [JPC-3]	1.11	1.02	0.984	1.09	1.1	1.03	1.21	–	1.03	1.09	1.06	0.992	0.883	0.972	1.01	1.07	1.09	1.01	1.01	0.954
NCI-H2342	1.1	1.18	0.878	1	1.06	0.909	1.02	0.866	0.952	0.888	0.876	0.964	0.758	1.11	1	1.03	1.06	0.92	0.946	1.12
NCI-H1915	0.951	1.11	1.07	1.12	1.13	0.994	1.03	1.02	0.996	0.994	0.986	1.04	0.926	1.04	1.01	0.998	1.08	0.987	0.985	1
COR-L23	0.994	0.926	0.956	0.962	1.06	1.11	1.04	0.993	1	1.07	1.06	1.11	1.02	1.1	1.06	0.95	1.06	1.09	1.09	0.95
ChaGo-K-1	0.905	0.994	0.873	0.909	0.943	1.06	1.05	1	0.909	1.01	1.02	0.998	0.978	1.02	0.999	1.09	1.04	0.946	0.979	0.972
HOP-62	1.09	1.25	1.01	1.1	1.08	1.1	1.1	1.16	1.08	1.09	1.03	1.05	1.02	1.05	0.975	0.983	1.07	0.952	1.04	1.01
NCI-H1975	0.959	0.832	1.02	0.952	1.02	1.03	1.1	0.961	0.873	0.855	0.934	0.824	0.937	1.06	0.959	0.995	0.978	0.852	0.836	0.905
BEN	0.724	0.55	0.592	0.61	0.524	0.918	1.11	1	0.95	0.808	0.994	0.876	0.801	0.938	0.977	1.14	1.02	0.925	0.981	1.01
NCI-H1563	1.04	0.9	0.967	1.1	0.932	0.99	0.977	1.04	0.915	1.01	0.936	0.929	0.974	1.13	0.865	0.899	1	0.96	0.971	0.981
EMC-BAC-2	0.965	1.11	0.995	1.06	0.985	0.776	1.1	1.15	1.04	1.01	1.01	0.955	0.89	1.12	0.73	1.02	1.26	0.947	1.12	0.999
NCI-H441	1.06	1.01	0.866	1.03	1.2	0.738	1.23	0.96	0.793	0.879	1.14	0.881	0.829	1.06	1.17	0.973	1.2	0.917	1.04	1.16
NCI-H727	0.774	0.79	0.774	0.855	0.908	0.852	1.05	0.808	0.912	0.961	0.971	1.06	0.8	1.13	1.01	1.07	0.952	0.878	0.85	0.938
NCI-H1299	1.09	1.08	1.15	1.14	1.06	1.03	1.08	1.03	1.05	1.08	1.02	0.989	1.04	1.01	1	0.977	1.06	1.02	1.04	0.994

Cell Line	relative viability (Zosuquidar + Foretinib; first compound 0.01 µM)	relative viability (Zosuquidar + Foretinib; first compound 0.03162 µM)	relative viability (Zosuquidar + Foretinib; first compound 0.1 µM)	relative viability (Zosuquidar + Foretinib; first compound 0.3162 µM)	relative viability (Zosuquidar + Foretinib; first compound 1 µM)	relative viability (Cabozantinib; 0.02 µM)	relative viability (Cabozantinib; 0.06325 µM)	relative viability (Cabozantinib; 0.2 µM)	relative viability (Cabozantinib; 0.6325 µM)	relative viability (Cabozantinib; 2 µM)	relative viability (Zosuquidar; 0.01 µM)	relative viability (Zosuquidar; 0.03162 µM)	relative viability (Zosuquidar; 0.1 µM)	relative viability (Zosuquidar; 0.3162 µM)	relative viability (Zosuquidar; 1 µM)	relative viability (Kobe2602; 0.2 µM)	relative viability (Kobe2602; 0.6325 µM)	relative viability (Kobe2602; 2 µM)	relative viability (Kobe2602; 6.325 µM)	relative viability (Kobe2602; 20 µM)
LU99A	0.784	0.931	0.813	0.855	0.814	0.889	1.03	0.979	0.901	0.822	0.984	0.833	0.971	1.04	0.912	0.908	0.998	0.948	0.939	1.01
NCI-H2405	1.05	1.06	0.946	1.05	1.04	0.807	1.11	1.09	1.01	1.08	1.1	0.942	0.981	1.03	0.93	1.04	1.09	0.964	1.09	1.14
NCI-H2009	1.24	1.2	1.24	1.2	1.23	1.08	1.06	1.08	1.07	1.15	1.02	0.945	0.929	1.06	0.971	1.02	1.08	0.966	1.04	0.99
HCC-827	1.05	1.03	0.9	1.01	1.02	1.07	1.01	–	1.12	1.06	0.973	0.977	0.981	1.06	0.976	1.07	1.13	1.06	1	1.02
NCI-H1623	0.868	0.832	0.821	0.933	0.803	0.959	1.13	0.731	1	0.972	0.98	0.898	0.879	1	1.02	1.04	1	1.03	0.9	0.933
NCI-H838	1.07	1	0.995	1.11	1.07	0.93	1	0.966	0.891	0.854	0.972	0.836	0.9	1.04	1.01	0.932	1.03	0.937	0.955	0.96
CAL-12T	1.12	1.18	0.978	1.18	1.02	1.04	1.14	1.01	0.982	1.01	1.07	1.16	0.923	1.2	0.932	0.965	1.06	0.896	0.997	0.957
RERF-LC-KJ	0.895	0.926	0.861	0.923	0.844	1.02	1.1	0.935	0.996	0.994	0.943	1.03	1.03	1.04	0.971	0.981	0.943	0.959	0.9	0.906
NCI-H2347	1.01	1.06	0.556	0.978	0.869	1.15	1.14	1.06	0.886	0.961	1	1.05	0.854	1.11	0.991	1.04	1.02	1.01	1.06	1.07
PC-14	0.99	0.983	0.952	0.997	0.952	1.01	1.14	–	0.996	0.99	0.988	0.981	0.953	1.11	0.954	0.993	1.05	0.989	1.04	0.952
HCC-366	0.922	0.856	0.999	0.96	0.869	1.06	1.02	0.99	0.967	0.995	1	1.04	0.977	1.04	0.986	0.985	0.982	1.02	1.02	1.07
LCLC-97TM1	0.922	0.929	0.9	1.01	0.974	–	1.02	1.06	0.999	1.02	0.9	1.12	–	1.02	0.939	1.07	1.07	0.928	0.798	1
A-427	1.1	0.983	0.96	1.18	1.06	0.996	1.01	1.02	0.972	0.98	1.02	1.01	0.801	1.14	0.96	1.03	1.12	0.962	1.04	1.06
NCI-H23	0.979	0.875	1.02	1.04	1.09	–	1.33	0.99	0.925	0.874	0.99	0.992	0.873	1.18	0.976	0.97	1.26	0.944	1.12	1.1
SW 900	0.761	0.86	0.819	0.952	0.854	0.807	1.14	0.815	0.959	0.903	0.904	0.889	0.705	1.22	0.759	0.987	0.861	0.83	0.906	0.975
NCI-H520	0.882	0.849	–	0.619	0.685	1.05	0.959	0.962	0.953	0.951	0.986	1.04	–	1.08	1.05	1.01	1.09	0.966	0.936	0.957
